{"source": "patent US7863499B2", "about": "“Model of infantile spasm syndrome” (Albert Einstein College of Medicine of Yeshiva University, priority 2007, dated 2011)", "test_system": "rat pups", "test": "Induction of spasm-like seizures in rat pups (video monitoring)", "assay_type": "in vivo", "conditions": "PCPA only, five pups", "method": "[…] The pups were injected with DOX i.c.v. and LPS intracerebrally in the right centroparietal cortex at P3; PCPA was administered i.p. at P5. […] There were no sex differences and the data were combined.\nBehavioral seizures and spasm-like episodes. […] Seven pups had recurrent seizures resembling spasms. Spasms were first observed at P7 in 60% of the pups. […] The spasms were characterized by the abrupt onset of flexion of the trunk with extension of the limbs at the height of the spasm (the sequence is shown in FIG. 2). In two pups, extension spasms were sometimes observed. The spasms lasted from 1 to 5 seconds.\nAnesthesia. Rat pups were anesthetized with 2% isoflurane in 100% O2 continuously delivered by a small facemask, custom-fitted to the stereotaxic frame.\nInjections of DOX and LPS. Both male and female rats were used. At P3, stereotaxic injections of DOX and LPS were performed using a 25 μL Hamilton syringe. DOX was injected into the right ventricle (AP=−1.0, ML=1.1, DV=−3.3, reference to bregma) and LPS into the right cerebral hemisphere (AP=−1.0, ML=1.0, DV=2.0, reference to bregma). The injection volume is 5 μl for DOX and 7 μl for LPS. The pups were allowed to recover before returning to the dam.\nTitration of doses of agents used to induce spasms. […]"}
{"compound": "N[C@@H](Cc1ccc(Cl)cc1)C(=O)O", "note": "(racemic) [PCPA, p-chlorophenylalanine]", "values": [{"measurement": "development of spasms", "value": "none of those pups developed spasms"}]}
